From ChEMBL document CHEMBL1126970, “Development of 1,4-benzodiazepine cholecystokinin type B antagonists” (J Med Chem, 1993) come the findings set out here.

The species named for one assay is Cavia porcellus. As to the kind of experiment: Selectivity ratio between CCK-B and CCK-A receptor. The arrangement: reference not given here.
For assay [1], the target named is T1, Cholecystokinin receptor type A (Rattus norvegicus, UniProt P30551).
T1 sequence (P30551 whole entry): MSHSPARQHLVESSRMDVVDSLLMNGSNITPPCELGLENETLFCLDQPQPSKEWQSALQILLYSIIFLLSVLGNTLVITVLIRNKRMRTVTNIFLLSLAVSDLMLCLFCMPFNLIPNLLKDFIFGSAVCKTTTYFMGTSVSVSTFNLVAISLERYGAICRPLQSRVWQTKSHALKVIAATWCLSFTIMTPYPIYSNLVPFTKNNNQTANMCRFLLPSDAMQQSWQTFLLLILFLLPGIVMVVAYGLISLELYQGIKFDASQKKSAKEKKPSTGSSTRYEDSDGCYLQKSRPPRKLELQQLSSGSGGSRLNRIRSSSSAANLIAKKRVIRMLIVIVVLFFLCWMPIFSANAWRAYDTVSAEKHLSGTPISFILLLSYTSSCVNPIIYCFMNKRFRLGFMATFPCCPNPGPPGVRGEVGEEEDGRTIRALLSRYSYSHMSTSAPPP
As to the kind of experiment: Inhibition of binding of [125I]CCK-8 to cholecystokinin type A receptor in rat pancreatic tissue.

For `CN1C(=O)[C@H](NC(=O)Nc2cccc(Br)c2)N=C(c2ccccc2)c2ccccc21`, in the assay filed under Cavia porcellus, the Selectivity ratio was determined as 221.
For `CN1C(=O)C(NC(=O)NCc2ccccc2)N=C(c2ccccc2)c2ccccc21` (racemic), the Selectivity ratio in the assay filed under Cavia porcellus came to 0.6.
On to `CN1C(=O)[C@H](NC(=O)Nc2ccc(Cl)cc2)N=C(c2ccccc2)c2ccccc21`, for which the IC50 in assay [1] was found to be 2200 nM. The Selectivity ratio in the assay listed under Cavia porcellus was 112.
`CCN(CC)CC(=O)OCCN1C(=O)C(NC(=O)Nc2cccc(C)c2)N=C(c2ccccc2)c2ccccc21` (racemic) yielded an IC50 in assay [1] of 190 nM. Besides, the Selectivity ratio in the assay listed under Cavia porcellus is 34.
For `CN1C(=O)[C@@H](NC(=O)Nc2ccc(Cl)cc2)N=C(c2ccccc2)c2ccccc21`, in that order: 110 nM and 0.1.
`Cc1cccc(NC(=O)N[C@@H]2N=C(c3ccccc3)c3ccccc3NC2=O)c1` displayed an IC50 in assay [1] of 3800 nM. The Selectivity ratio in the assay listed under Cavia porcellus was found to be 95.
The matching figures for `CN1C(=O)[C@H](NC(=O)Nc2cccc(N)c2)N=C(c2ccccc2)c2ccccc21`: 4330 nM and 131.
On to `CCOC(=O)CCN1C(=O)C(NC(=O)Nc2ccc(Cl)cc2)N=C(c2ccccc2)c2ccccc21` (racemic), for which the Selectivity ratio in the assay filed under Cavia porcellus came out at 204.
Same read-out and setting: for `CN1C(=O)C(NC(=O)Nc2cccc(Br)c2)N=C(c2ccccc2)c2ccccc21` (racemic) the value was 1.
In assay [1], `COc1cccc(NC(=O)NC2N=C(c3ccccc3)c3ccccc3N(CC(=O)N3CCN(C)CC3)C2=O)c1` (racemic) showed an IC50 of 1400 nM. In the assay filed under Cavia porcellus, the Selectivity ratio came to 318.
On to `COc1cccc(NC(=O)NC2N=C(c3ccccc3)c3ccccc3N(CCC(=O)O)C2=O)c1` (racemic), for which the IC50 in assay [1] stood at 9 nM. Also, in the assay filed under Cavia porcellus, the Selectivity ratio is 0.036.
With `Cc1cccc(NC(=O)NC2N=C(c3ccccc3)c3ccccc3N(Cc3c[nH]cn3)C2=O)c1` (racemic), the Selectivity ratio in the assay filed under Cavia porcellus stood at 1.
In assay [1], `Cc1cccc(NC(=O)NC2N=C(c3ccccc3)c3ccccc3N(CC(=O)N3CC[N+](C)(C)CC3)C2=O)c1` (racemic) returned an IC50 of 6200 nM. Also, the Selectivity ratio in the assay filed under Cavia porcellus amounted to 107.
`CN1C(=O)[C@H](NC(=O)Nc2ccccc2Cl)N=C(c2ccccc2)c2ccccc21` displayed an IC50 in assay [1] of 410 nM. In addition, the Selectivity ratio in the assay filed under Cavia porcellus came out at 6.7.
As for `Cc1cccc(NC(=O)NC2N=C(c3ccccc3)c3ccccc3N(Cc3ncc[nH]3)C2=O)c1` (racemic), the Selectivity ratio in the assay filed under Cavia porcellus came out at 4.
`Cc1cccc(NC(=O)NC2N=C(c3ccccc3)c3ccccc3N(CC(=O)O)C2=O)c1` (racemic) displayed an IC50 in assay [1] of 7.6 nM. Further, the Selectivity ratio in the assay filed under Cavia porcellus was 0.02.
`CN1C(=O)[C@H](NC(=O)c2ccc(C(F)(F)F)cc2)N=C(c2ccccc2)c2ccccc21`: in the assay filed under Cavia porcellus, the Selectivity ratio is 35.
Same read-out and setting: the same measure for `CCNC(=O)CN1C(=O)C(NC(=O)Nc2ccc(Cl)cc2)N=C(c2ccccc2)c2ccccc21` (racemic): 191.
The compound `Cc1cccc(NC(=O)NC2N=C(c3ccccc3)c3ccccc3N(Cc3n[nH]c(C)n3)C2=O)c1` (racemic) showed a concentration for half-maximal inhibition (IC50) in assay [1] of 566 nM. For the same compound, in the assay filed under Cavia porcellus, the Selectivity ratio was 58.
In the case of `CN1C(=O)C(NC(=O)Nc2ccc(Br)cc2)N=C(c2ccccc2)c2ccccc21` (racemic), the Selectivity ratio in the assay listed under Cavia porcellus was 2.7.
In assay [1], `Cc1cccc(NC(=O)NC2N=C(c3ccccc3)c3cnccc3N(C)C2=O)c1` (racemic) came in with an IC50 of 61.4 nM. The Selectivity ratio in the assay filed under Cavia porcellus came out at 0.1.
The matching figures for `COC(=O)Cc1cccc(NC(=O)NC2N=C(c3ccccc3)c3ccccc3N(C)C2=O)c1` (configuration not stated): 2100 nM and 64.
As for `COc1cc(NC(=O)NC2N=C(c3ccccc3)c3ccccc3N(C)C2=O)cc(OC)c1` (racemic), in the assay listed under Cavia porcellus, the Selectivity ratio is 0.1.
On to `Cc1cccc(NC(=O)N[C@H]2N=C(c3ccccc3)c3ccccc3N(C)C2=O)c1`, for which, in assay [1], the IC50 is 4.7 nM.
Take `CN1C(=O)C(NC(=O)Nc2ccc(Cl)cc2)N=C(c2ccccc2)c2ccccc21` (racemic): in assay [1], the IC50 amounted to 1200 nM. In addition, the Selectivity ratio in the assay listed under Cavia porcellus is 15.
Turning to `CN1C(=O)C(NC(=O)Nc2cccc([N+](=O)[O-])c2)N=C(c2ccccc2)c2ccccc21` (racemic), the Selectivity ratio in the assay listed under Cavia porcellus is 3.
As for `CN1C(=O)C(NC(=O)Nc2ccc(C(=O)O)cc2)N=C(c2ccccc2)c2ccccc21` (racemic), the IC50 in assay [1] is more than 10000 nM.
On to `COc1cccc(NC(=O)NC2N=C(c3ccccc3)c3ccccc3N(CC(=O)N3CCCC3)C2=O)c1` (racemic), for which the IC50 in assay [1] was found to be 170 nM. For the same compound, the Selectivity ratio in the assay listed under Cavia porcellus is 708.
The matching figures for `Cc1ccc(NC(=O)NC2N=C(c3ccccc3)c3ccccc3N(C)C2=O)cc1C` (configuration not stated): 310 nM and 14.
As to `CN1C(=O)C(NC(=O)Nc2cccc(F)c2)N=C(c2ccccc2)c2ccccc21` (racemic), in the assay listed under Cavia porcellus, the Selectivity ratio amounted to 0.2.
Regarding `C[C@H](NC(=O)NC1N=C(c2ccccc2)c2ccccc2N(C)C1=O)c1ccccc1` (mixture of isomers), the IC50 in assay [1] is 430 nM. Also, the Selectivity ratio in the assay listed under Cavia porcellus turned out to be 0.04.
The matching figures for `O=C(Nc1ccc(Cl)cc1)NC1N=C(c2ccccc2)c2ccccc2N(CC(=O)N2CCCC2)C1=O` (racemic): 1000 nM and 625.
For `CN1C(=O)C(NC(=O)Nc2ccc3ccccc3n2)N=C(c2ccccc2)c2ccccc21` (configuration not stated), in that order: 180 nM and 7.
As for `O=C(CN1C(=O)C(NC(=O)Nc2ccc(Cl)cc2)N=C(c2ccccc2)c2ccccc21)NCc1ccccc1` (racemic), in the assay listed under Cavia porcellus, the Selectivity ratio is 24.
Regarding `CN1C(=O)C(NC(=O)Nc2cccc(C#N)c2)N=C(c2ccccc2)c2ccccc21` (configuration not stated), the IC50 in assay [1] was 3100 nM. Also, the Selectivity ratio in the assay filed under Cavia porcellus was 115.
In assay [1], `CN1C(=O)[C@H](NC(=O)NCc2cccc(O)c2)N=C(c2ccccc2)c2ccccc21` came in with an IC50 of 21 nM. Besides, the Selectivity ratio in the assay listed under Cavia porcellus worked out at 1.
The compound `C#Cc1cccc(NC(=O)NC2N=C(c3ccccc3)c3ccccc3N(C)C2=O)c1` (configuration not stated) yielded an IC50 in assay [1] of 402 nM. The Selectivity ratio in the assay filed under Cavia porcellus amounted to 18.
For the compound `CCN(CC)C(=O)C(C)N1C(=O)C(NC(=O)Nc2ccc(Cl)cc2)N=C(c2ccccc2)c2ccccc21` (racemic), the IC50 in assay [1] was determined as 410 nM. Further, in the assay filed under Cavia porcellus, the Selectivity ratio was 19.
As to `CN1C(=O)C(NC(=O)NC(C)(C)C)N=C(c2ccccc2)c2ccccc21` (racemic), the Selectivity ratio in the assay listed under Cavia porcellus was found to be 0.2.
On to `CN1C(=O)C(NC(=O)Nc2ccccc2)N=C(c2ccccc2)c2ccccc21` (racemic), for which the Selectivity ratio in the assay filed under Cavia porcellus worked out at 0.26.
In turn, `COc1ccc(NC(=O)NC2N=C(c3ccccc3)c3ccccc3N(C)C2=O)cn1` (configuration not stated) returned an IC50 in assay [1] of 2900 nM. Further, in the assay listed under Cavia porcellus, the Selectivity ratio is 6.3.
For `C=Cc1cccc(NC(=O)N[C@@H]2N=C(c3ccccc3)c3ccccc3N(C)C2=O)c1`, the IC50 in assay [1] was determined as 1670 nM. Also, the Selectivity ratio in the assay listed under Cavia porcellus was 48.
As for `O=C(O)CN1C(=O)C(NC(=O)Nc2ccc(Cl)cc2)N=C(c2ccccc2)c2ccccc21` (racemic), the Selectivity ratio in the assay filed under Cavia porcellus was found to be 0.77.
Still for that read-out and setting: for `CCOC(=O)CN1C(=O)C(NC(=O)Nc2ccc(Cl)cc2)N=C(c2ccccc2)c2ccccc21` (racemic) the value was 370.
In the case of `COc1ccccc1NC(=O)NC1N=C(c2ccccc2)c2ccccc2N(C)C1=O` (racemic), in the assay listed under Cavia porcellus, the Selectivity ratio was found to be 0.5.
On to `CN1C(=O)[C@H](NC(=O)Nc2cccc(Cl)c2)N=C(c2ccccc2)c2ccccc21`, for which the Selectivity ratio in the assay listed under Cavia porcellus stood at 39.
As for `CN1C(=O)C(NC(=O)NC2CCCCC2)N=C(c2ccccc2)c2ccccc21` (racemic), in the assay filed under Cavia porcellus, the Selectivity ratio amounted to 0.8.
In the case of `O=C(Nc1ccc(Cl)cc1)NC1N=C(c2ccccc2)c2ccccc2N(Cc2nn[nH]n2)C1=O` (racemic), the Selectivity ratio in the assay listed under Cavia porcellus was determined as 4.
For `CN1C(=O)C(NC(=O)Nc2ccc(F)cc2)N=C(c2ccccc2)c2ccccc21` (configuration not stated), the Selectivity ratio in the assay filed under Cavia porcellus was 0.7.
The same measure, in the same setting: for `CN1C(=O)C(NC(=O)Nc2ccc(Cl)c(Cl)c2)N=C(c2ccccc2)c2ccccc21` (racemic) the value was 0.4; for `CCN(CC)C(=O)CN1C(=O)C(NC(=O)Nc2ccc(Cl)cc2)N=C(c2ccccc2)c2ccccc21` (racemic), 667.
For the compound `CN1CCN(C(=O)CN2C(=O)C(NC(=O)Nc3ccc(Cl)cc3)N=C(c3ccccc3)c3ccccc32)CC1` (racemic), the Selectivity ratio in the assay filed under Cavia porcellus came to 1500.
`CN1C(=O)C(NC(=O)Nc2ccc(Cl)cc2Cl)N=C(c2ccccc2)c2ccccc21` (racemic): in the assay listed under Cavia porcellus, the Selectivity ratio amounted to 0.01.
Still for that read-out and setting: the same measure for `COc1cccc(NC(=O)N[C@@H]2N=C(c3ccccc3)c3ccccc3N(C)C2=O)c1`: 272; for `COc1cccc(NC(=O)N[C@H]2N=C(c3ccccc3)c3ccccc3N(C)C2=O)c1`: less than 0.01; for `CN1C(=O)C(NC(=O)Nc2ccc([N+](=O)[O-])cc2)N=C(c2ccccc2)c2ccccc21` (racemic): 4.5.
On the same count and under the same terms, the same measure for `O=C(Nc1ccc(Cl)cc1)NC1N=C(c2ccccc2)c2ccccc2N(CC(=O)OCc2ccccc2)C1=O` (racemic): 30; for `CN1C(=O)C(NC(=O)Nc2ccccc2[N+](=O)[O-])N=C(c2ccccc2)c2ccccc21` (racemic): less than 0.01; for `CN1C(=O)C(NC(=O)Nc2cccc(Cl)c2)N=C(c2ccccc2)c2ccccc21` (racemic): 1.
In turn, `O=C(Nc1ccc(Cl)cc1)NC1N=C(c2ccccc2)c2ccccc2N(Cc2nnn[nH]2)C1=O` (racemic) showed an IC50 in assay [1] of 2100 nM.
Consider `COc1cccc(NC(=O)NC2N=C(c3ccccc3)c3ccccc3N(C)C2=O)c1` (racemic), for which the Selectivity ratio in the assay listed under Cavia porcellus is 2.
On the same count and under the same terms, the same measure for `CCOC(=O)CN1C(=O)C(NC(=O)c2ccccc2Cl)N=C(c2ccccc2F)c2ccccc21` (racemic): more than 9.
